We go through one compound from patent US11806328B2, “Metabolic therapy for wound healing” (University of South Florida, priority 2013, dated 2023).

One experiment has as its system HDFs. Briefly: proliferation of HDFs. The experiment is classed as cell-based, human.
A further experiment concerns Young and aged HDFs. The experiment in a line: scratch migration assay. The conditions noted are these: for migrated cells (Dapi staining) versus untreated control: 5 mM BHB 72 hours, 18 hours after scratch. The experiment is classed as cell-based, human. The method, then:
Young and aged HDFs were grown to confluence in 0.2% FBS 5 mM glucose DMEM media, cells were treated with or without the presence of 5 mM BHB for 72 hours, cells were scratched with 200 uL yellow pipette tip. After 18 hours, migrated cells were counted using Dapi staining.

Experiment [1] deals with Primary human dermal fibroblasts (HDFs). The experiment in a line: ROS production (DHE cytosolic, MitoSOX Red mitochondrial) in stressed primary human dermal fibroblasts. The experiment is classed as cell-based. The note with it: for decrease of cytosolic ROS production (DHE) / reduction of mitochondrial ROS production (MitoSOX Red): 5 mM BHB 72 hours, then 100 μM tert-butyl-hydrogen peroxide 3 hrs. Here is the method: Primary human dermal fibroblasts (HDFs, passaged 2-8) from young and aged donors (24 to 88 years) were incubated in the absence or presence of BHB for 72 hours prior to stress with 100 μM tert-buytl-hydrogen peroxide for 3 hours. ROS production was measured fluorescently with dihydroethidium (DHE, cytosolic) and MitoSOX Red (mitochondrial) in triplicate, N=6. In the cytosol, aged HDFs produced 28% (p=<0.001)) more ROS basally compared to their young counterparts. When incubated in BHB for 72 hours, ROS production in the young HDFs decreased by 40% (p=<0.0001) and by 41% (p=<0.0001) in the aged. In the mitochondria, aged HDFs produced 27% (p=<0.0001) more ROS at baseline than the young HDFs, consistent with observations in cytosol. […] As such, ketone supplementation is useful against redox stress and augments wound healing, shifting redox homeostasis in HDFs, especially in the elderly. Primary human dermal fibroblasts (HDFs, passaged 2-8) from young and aged donors (24 to 88 years) were incubated in the absence or presence of 5 mM beta-hydroxybutyrate (BHB) for 72 hours. To simulate a wound environment, the cells were then stressed with 100 μM tert-butyl-hydrogen peroxide for 3 hrs. ROS production was measured fluorescently with dihydroethidium (DHE, cytosolic) and Mitosox Red (mitochondrial) in triplicate, N=6. In the cytosol, seen in FIG. 2(A), aged HDFs produced 25% (p=0.003) more ROS basally compared to their young counterparts. This is consistent with the knowledge that aged cells have less antioxidants to mitigate the ROS production in a stressed environment. When incubated in 5 mM BHB for 72 hours, young HDFs ROS production decreased by 40% (p=<0.0001) and aged ROS production decreased by 41% (p=<0.0001). […] When incubated in BHB, ROS production was reduced in the young by 29% (p<0.0001) and in the aged by 51% (p<0.0001) compared to the controls. […] Significance calculated using one-way ANOVA and t-tests on Prism 6 software.

Regarding `CC(O)CC(=O)O` (stereo not drawn) [BHB, beta-hydroxybutyrate], the proliferation entry with HDFs is recorded as “did not significantly change proliferation”. In addition, the “migrated cells (Dapi staining) versus untreated control” value is “migrated significantly more” in the experiment on Young and aged HDFs (aged HDFs); “migrated significantly more” in the experiment with Young and aged HDFs (young HDFs). Moreover, the migration result in the experiment on Young and aged HDFs (both young and aged HDFs, in words) is given as “did increase migration”. For the same compound, the “decrease of cytosolic ROS production (DHE)” value in experiment [1] (aged HDFs) is 41%; in experiment [1] (young HDFs), 40%. The “reduction of mitochondrial ROS production (MitoSOX Red)” value in experiment [1] (aged HDFs) worked out at 51%; in experiment [1] (young HDFs), 29%. Also, in experiment [1] (young and aged primary human dermal fibroblasts, in words), the “cytosolic and mitochondrial ROS production” value is “reduces cytosolic and mitochondrial ROS production”.
